This note sets out measurements from patent publication US10568879B2 (GALAPAGOS NV, priority 2015, dated 2020).

The target in this assay is T1, GPR84 (Homo sapiens, UniProt Q9NQS5).
T1 construct: expressed in transfected cells
In words: GPR84 [35S]GTPγS binding assay. The assay is classed as biochemical. The following applies: 3,3′-diindolylmethane at EC80; membranes from stable cell line over expressing GPR84. As to the method: The following assay can be used for determination of GPR84 activation. The [^35S]GTPγS binding assay measures the level of G protein activation following agonist occupation of a GPCR, by determining the binding of the non-hydrolysable analog [^35S]GTPγS to Gα subunits.
The assay is performed in a 96-well plate where the following reagents are added. First 50 μL compound is added into the assay plate, followed by addition of 20 μL 3,3′-diindolylmethane at EC80 concentration (concentration which gives 80% of the activity of GPR84). Then, 30 μL of a mixture consisting of membranes-GTPγS-SpA beads is added [mixture consists of 20 μg/well membranes derived from stable cell line over expressing GPR84 (membranes are pre-incubated with 0.1 μM GDP for 15 min at 4° C.), 0.1 nM [^35S]GTPγS (Perkin Elmer, NEG030) and 0.5 mg/well PVT-WGA SpA beads (Perkin Elmer, RPNQ0001)]. All components are diluted in assay buffer containing 20 mM Tris pH 7.5; 5 mM MgCl2; 250 mM NaCl; 0.05% BSA; 75 μg/mL saponin. After an incubation of 90 min at room temperature, 20 μL CsCl2 0.8 M (MP Biomedicals, 02150589) is added, followed by centrifugation at 2000 rpm during 20 min. Plates are read on a topcount reader (perkin elmer) immediately after centrifugation (readout time, 1 min/well).

T1 sequence (Q9NQS5 whole entry): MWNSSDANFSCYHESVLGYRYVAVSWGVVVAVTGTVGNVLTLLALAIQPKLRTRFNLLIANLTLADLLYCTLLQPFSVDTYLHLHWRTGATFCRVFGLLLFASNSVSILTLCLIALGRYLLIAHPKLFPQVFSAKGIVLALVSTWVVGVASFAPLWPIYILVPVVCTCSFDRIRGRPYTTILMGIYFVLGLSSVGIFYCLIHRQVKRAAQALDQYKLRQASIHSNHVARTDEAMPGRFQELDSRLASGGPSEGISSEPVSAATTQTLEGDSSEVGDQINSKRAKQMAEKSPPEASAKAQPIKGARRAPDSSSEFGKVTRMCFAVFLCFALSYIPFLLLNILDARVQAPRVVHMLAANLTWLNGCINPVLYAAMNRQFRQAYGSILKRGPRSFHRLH

Regarding `Cc1c2n(c(OC[C@@H]3COCCO3)cc1=O)CCc1cc(N3CC(C(F)(F)F)C3)ccc1-2` [Compound 132, 4-[[(2S)-1,4-dioxan-2-yl]methoxy]-1-methyl-9-[3-(trifluoromethyl)azetidin-1-yl]-6,7-dihydrobenzo[a]quinolizin-2-one], the IC50 is 0.01 to 100 nM.
`Cc1c2n(c(OC[C@@H]3COCCO3)cc1=O)CCc1cc(N3CC=C(C(F)(F)F)CC3)ccc1-2` [Compound 133, 4-[[(2S)-1,4-dioxan-2-yl]methoxy]-1-methyl-9-[4-(trifluoromethyl)-3,6-dihydro-2H-pyridin-1-yl]-6,7-dihydrobenzo[a]quinolizin-2-one] yielded an IC50 of 0.01 to 100 nM.
The molecule `Cc1c2n(c(OC[C@@H]3COCCO3)cc1=O)CCc1cc(N3CCC[C@H]3C)ccc1-2` [Compound 134, 4-[[(2S)-1,4-dioxan-2-yl]methoxy]-1-methyl-9-[(2R)-2-methylpyrrolidin-1-yl]-6,7-dihydrobenzo[a]quinolizin-2-one] showed an IC50 of 0.01 to 100 nM.
`Cc1c2n(c(OC[C@@H]3COCCO3)cc1=O)CCc1cc(N3CCCC(F)C3)ccc1-2` (stereo partly drawn) [Compound 135, 4-[[(2S)-1,4-dioxan-2-yl]methoxy]-9-(3-fluoro-1-piperidyl)-1-methyl-6,7-dihydrobenzo[a]quinolizin-2-one] returned an IC50 of 0.01 to 100 nM.
Consider `Cc1c2n(c(OC[C@@H]3COCCO3)cc1=O)CCc1cc(-n3c4ccccc4c4ccccc43)ccc1-2` [Compound 136, 9-carbazol-9-yl-4-[[(2S)-1,4-dioxan-2-yl]methoxy]-1-methyl-6,7-dihydrobenzo[a]quinolizin-2-one], for which the IC50 was 0.01 to 100 nM.
Consider `Cc1c2n(c(OC[C@@H]3COCCO3)cc1=O)CCc1cc(N3CC(C)CC(C)C3)ccc1-2` (stereo partly drawn) [Compound 137, 9-(3,5-dimethyl-1-piperidyl)-4-[[(2S)-1,4-dioxan-2-yl]methoxy]-1-methyl-6,7-dihydrobenzo[a]quinolizin-2-one], for which the IC50 was in the range of 0.01 to 100 nM.
As to `Cc1c2n(c(OC[C@@H]3COCCO3)cc1=O)CCc1cc(N3CCC(C)(C)C3)ccc1-2` [Compound 138, 9-(3,3-dimethylpyrrolidin-1-yl)-4-[[(2S)-1,4-dioxan-2-yl]methoxy]-1-methyl-6,7-dihydrobenzo[a]quinolizin-2-one], the IC50 lay within 0.01 to 100 nM.
`Cc1c2n(c(OC[C@@H]3COCCO3)cc1=O)CCc1cc(N3CCC(C)(C)CC3)ccc1-2` [Compound 139, 9-(4,4-dimethyl-1-piperidyl)-4-[[(2S)-1,4-dioxan-2-yl]methoxy]-1-methyl-6,7-dihydrobenzo[a]quinolizin-2-one] had an IC50 of 0.01 to 100 nM.
`Cc1c2n(c(OC[C@@H]3COCCO3)cc1=O)CCc1cc(N3CCC(C(F)(F)F)CC3)ccc1-2` [Compound 140, 4-[[(2S)-1,4-dioxan-2-yl]methoxy]-1-methyl-9-[4-(trifluoromethyl)-1-piperidyl]-6,7-dihydrobenzo[a]quinolizin-2-one] showed an IC50 of 0.01 to 100 nM.
Take `Cc1c2n(c(OC[C@@H]3COCCO3)cc1=O)CCc1cc(N3CCC(C)CC3)ccc1-2` [Compound 141, 4-[[(2S)-1,4-dioxan-2-yl]methoxy]-1-methyl-9-(4-methyl-1-piperidyl)-6,7-dihydrobenzo[a]quinolizin-2-one]: the IC50 fell in the range of 0.01 to 100 nM.
`Cc1c2n(c(OC[C@@H]3COCCO3)cc1=O)CCc1cc(NCC(F)(F)F)ccc1-2` [Compound 142, 4-[[(2S)-1,4-dioxan-2-yl]methoxy]-1-methyl-9-(2,2,2-trifluoroethylamino)-6,7-dihydrobenzo[a]quinolizin-2-one] showed an IC50 of 0.01 to 100 nM.
`Cc1c2n(c(OC[C@@H]3COCCO3)cc1=O)CCc1cc(N3CCCCC3C)ccc1-2` (stereo partly drawn) [Compound 143, 4-[[(2S)-1,4-dioxan-2-yl]methoxy]-1-methyl-9-(2-methyl-1-piperidyl)-6,7-dihydrobenzo[a]quinolizin-2-one] returned an IC50 of 0.01 to 100 nM.
`Cc1c2n(c(OC[C@@H]3COCCO3)cc1=O)CCc1cc(OC3CCN(C(=O)C4CC4)C3)ccc1-2` (stereo partly drawn) [Compound 144, 9-[1-(cyclopropanecarbonyl)pyrrolidin-3-yl]oxy-4-[[(2S)-1,4-dioxan-2-yl]methoxy]-1-methyl-6,7-dihydrobenzo[a]quinolizin-2-one] returned an IC50 of 100 to 500 nM.
To `CCOC(=O)N1CCC(Oc2ccc3c(c2)CCn2c(OC[C@@H]4COCCO4)cc(=O)c(C)c2-3)C1` (stereo partly drawn) [Compound 145, ethyl 3-[[4-[[(2S)-1,4-dioxan-2-yl]methoxy]-1-methyl-2-oxo-6,7-dihydrobenzo[a]quinolizin-9-yl]oxy]pyrrolidine-1-carboxylate] belongs 0.01 to 100 nM; to `Cc1c2n(c(OC[C@@H]3COCCO3)cc1=O)CCc1cc(C3CN(C(=O)C4CC4)C3)ccc1-2` [Compound 146, 9-[1-(cyclopropanecarbonyl)azetidin-3-yl]-4-[[(2S)-1,4-dioxan-2-yl]methoxy]-1-methyl-6,7-dihydrobenzo[a]quinolizin-2-one], 500 to 1000 nM; to `CCOC(=O)N1CC(c2ccc3c(c2)CCn2c(OC[C@@H]4COCCO4)cc(=O)c(C)c2-3)C1` [Compound 147, ethyl 3-[4-[[(2S)-1,4-dioxan-2-yl]methoxy]-1-methyl-2-oxo-6,7-dihydrobenzo[a]quinolizin-9-yl]azetidine-1-carboxylate], 0.01 to 100 nM.
On to `Cc1c2n(c(OC[C@@H]3COCCO3)cc1=O)CCc1cc(C3CN(C(=O)N(C)C)C3)ccc1-2` [Compound 148, 3-[4-[[(2S)-1,4-dioxan-2-yl]methoxy]-1-methyl-2-oxo-6,7-dihydrobenzo[a]quinolizin-9-yl]-N,N-dimethyl-azetidine-1-carboxamide], for which the IC50 lay within 500 to 1000 nM.
Molecule `Cc1c2n(c(OC[C@@H]3COCCO3)cc1=O)CCc1cc(C3CN(C(=O)NC(C)C)C3)ccc1-2` [Compound 149, 3-[4-[[(2S)-1,4-dioxan-2-yl]methoxy]-1-methyl-2-oxo-6,7-dihydrobenzo[a]quinolizin-9-yl]-N-isopropyl-azetidine-1-carboxamide] registered an IC50 of 500 to 1000 nM.
In turn, `Cc1c2n(c(OC[C@@H]3COCCO3)cc1=O)CCc1cc(OC3CN(C(=O)N(C)C)C3)ccc1-2` [Compound 150, 3-[[4-[[(2S)-1,4-dioxan-2-yl]methoxy]-1-methyl-2-oxo-6,7-dihydrobenzo[a]quinolizin-9-yl]oxy]-N,N-dimethyl-azetidine-1-carboxamide] registered an IC50 of 500 to 1000 nM.
Regarding `Cc1c2n(c(OC[C@@H]3COCCO3)cc1=O)CCc1cc(OC3CN(C(=O)NC(C)C)C3)ccc1-2` [Compound 151], the IC50 was in the range of 500 to 1000 nM.
To `Cc1c2n(c(OCC3CC(C)(C)O3)cc1=O)CCc1cc(OCc3ccccc3)ccc1-2` (stereo not drawn) [Compound 152, 9-benzyloxy-4-[(4,4-dimethyloxetan-2-yl)methoxy]-1-methyl-6,7-dihydrobenzo[a]quinolizin-2-one] belongs 100 to 500 nM; to `Cc1c2n(c(OCC3(C)CCCO3)cc1=O)CCc1cc(OCc3ccccc3)ccc1-2` (stereo not drawn) [Compound 153, 9-benzyloxy-1-methyl-4-[(2-methyltetrahydrofuran-2-yl)methoxy]-6,7-dihydrobenzo[a]quinolizin-2-one], 100 to 500 nM; to `Cc1c2n(c(OCC3CCC(C)(C)O3)cc1=O)CCc1cc(OCc3ccccc3)ccc1-2` (stereo not drawn) [Compound 154, 9-benzyloxy-4-[(5,5-dimethyltetrahydrofuran-2-yl)methoxy]-1-methyl-6,7-dihydrobenzo[a]quinolizin-2-one], 0.01 to 100 nM.
`Cc1c2n(c(OC[C@@H]3COCCO3)cc1=O)CCc1cc(OCC(F)(F)C(F)(F)F)ccc1-2` [Compound 155, 4-[[(2S)-1,4-dioxan-2-yl]methoxy]-1-methyl-9-(2,2,3,3,3-pentafluoropropoxy)-6,7-dihydrobenzo[a]quinolizin-2-one] had an IC50 of 0.01 to 100 nM.
For `Cc1c2n(c(OC[C@@H]3COCCO3)cc1=O)CCc1ccccc1-2` [Compound 156, 4-[[(2S)-1,4-dioxan-2-yl]methoxy]-1-methyl-6,7-dihydrobenzo[a]quinolizin-2-one], the IC50 was in the range of 100 to 500 nM.
The molecule `Cc1c2n(c(OC[C@@H]3COCCO3)cc1=O)CCc1cc(N3CCCC3=O)ccc1-2` [Compound 157, 4-[[(2S)-1,4-dioxan-2-yl]methoxy]-1-methyl-9-(2-oxopyrrolidin-1-yl)-6,7-dihydrobenzo[a]quinolizin-2-one] registered an IC50 of 500 to 1000 nM.
`Cc1c2n(c(OC[C@@H]3COCCO3)cc1=O)CCc1cc(OCCF)ccc1-2` [Compound 159, 4-[[(2S)-1,4-dioxan-2-yl]methoxy]-9-(2-fluoroethoxy)-1-methyl-6,7-dihydrobenzo[a]quinolizin-2-one] showed an IC50 of 0.01 to 100 nM.
